Literature values in PMC2853223 (ACS chemical biology, 2009).

System: DEBS 3
Details: mismatched PikAII/DEBS 3 pairing

In the case of “PiKAII: pikromycin PKS protein PikAII, paired with DEBS 3 in vivo”, the “association and transfer with DEBS 3 in vivo” value is given as “productive association and transfer”.
